{
  "source": "patent US9101600B2",
  "about": "“Compounds as RORγt modulators and uses thereof” (New York University, priority 2010, dated 2015)",
  "target": "RORγ/γt (Mus musculus, UniProt P51450, T352K)",
  "sequence (P51450 with tags, fused parts or gaps T352K)": "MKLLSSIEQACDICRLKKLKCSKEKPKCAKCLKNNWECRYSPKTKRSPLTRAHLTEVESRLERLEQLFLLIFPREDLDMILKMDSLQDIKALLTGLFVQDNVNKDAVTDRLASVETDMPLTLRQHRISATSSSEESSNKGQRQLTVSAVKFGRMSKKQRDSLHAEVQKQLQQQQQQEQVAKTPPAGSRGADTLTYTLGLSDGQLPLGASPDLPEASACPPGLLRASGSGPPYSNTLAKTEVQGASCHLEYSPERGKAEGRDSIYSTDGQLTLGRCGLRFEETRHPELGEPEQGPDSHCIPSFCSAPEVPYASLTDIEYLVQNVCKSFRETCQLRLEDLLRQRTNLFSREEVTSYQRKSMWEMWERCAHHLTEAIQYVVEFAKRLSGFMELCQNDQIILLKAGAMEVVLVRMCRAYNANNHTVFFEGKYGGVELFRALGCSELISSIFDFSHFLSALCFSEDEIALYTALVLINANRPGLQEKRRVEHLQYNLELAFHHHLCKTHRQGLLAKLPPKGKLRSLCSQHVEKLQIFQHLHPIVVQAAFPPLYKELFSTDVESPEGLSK",
  "experiment": "RORγ/γt-luc reporter S2 cell assay / HTS (firefly luciferase)",
  "settings": "for Curve Class: RORγ/γt HTS concentration response curve class",
  "text": "The Drosophila S2 cell line was originally purchased from Invitrogen and was maintained in Schneider's medium supplemented with 10% heat-inactivated bovine fetal calf serum and antibiotics (Invitrogen). Gal4 DNA binding domain (G4 DBD) corresponding to amino acids 1 through 147 of Gal4 protein was PCR amplified to make a fusion construct with mouse RORγt (amino acids 79 to the carboxyl terminal end) lacking its DNA binding domain. The resulting chimeric gene was subcloned into the copper inducible pMT/V5-His A vector (available from Invitrogen). In a similar manner, Gal4 fusion constructs were prepared with mouse RORα (amino acids 142 to end) or Drosophila DHR3 (amino acids 120 to end).\nIn order to generate stable cell lines, cells were co-transfected with pMT-G4 DBD-RORγt, pMT-G4 DBD-RORα, pMT-G4 DBD-DHR3, or pMT-G4DBDVP16 and pHygro plasmids (Invitrogen) and screened for resistant colonies in the presence of hygromycin (0.3 mg/mL). More than 150 independent RORγ stable clones with luciferase reporters (pMt-RORγ_luc) were tested for their suitability for the high-throughput screening (HTS) based on the following criteria: high signal-to background ratio in 384- and 1,536-well plates, their high induction rate upon the addition of copper, and RORγ/γt specificity probed by the dsRORγ- or RORγ/γt antagonist-mediated suppression. Positive clones were further transfected with pUAST-firefly luciferase, polIII-Renilla luciferase, and pCoPuro (Iwaki, Figuera et al. 2003) (“Rapid selection of Drosophila S2 cells with the puromycin resistance gene.” Biotechniques 35(3): 482-4, 486.) and selected with puromycin (2.5 ug/ml). […] Using similar methods, stable clones with genomic integration of the luciferase reporters and other reporters were generated such as pMT-RORα_luc, pMT-DHR3_luc, or pMT-VP16_luc.\n600 G4 DBD-RORγ/γt-luc reporter (#25) or G4 DBD-VP16-luc reporter cells were distributed into each well of 1,536-well white bottom plates in 4 μl S2 cell culture volume containing hygromicin (300 μg/ml) and puromycin (2 μg/ml). Small compounds in seven different concentrations range from 46 μM to 1.7 nM were pin-transferred (23 nl) by a robot (Inglese et al., 2006, Proc. Natl. Acad. Sci. 103:11473-8). […] After 20-hour incubation at ambient temperature, 1.5 μl firefly luciferase detection mix was added and the luciferase activities were measured in 10 min. ViewLux luminometers were used for measuring luciferase signal.\nSince their cognate DNA binding sites were not well characterized, the DNA binding domains (DBD) of RORγ/γt, RORα(mouse homolog for PORγ), and DHR3 (Drosophila orthologue for ROR family proteins) were replaced with the heterologous yeast GAL4 DBD. The transcriptionally active domain of general transcriptional activator VP16 was also fused with GAL4 DBD.",
  "data": [
    {"smiles": "CCOC(=O)[C@@H]1[C@H]2COc3ccccc3[C@@H]2N2C(=O)N(c3ccccc3)C(=O)[C@@]12C", "note": "[MLS001066482-01]", "values": [
      {"measurement": "AC50", "result": 12.6, "unit": "µM"},
      {"measurement": "Curve Class", "result": "−2.1"}
    ]},
    {"smiles": "CCOC(=O)[C@@H]1[C@H]2COc3ccccc3[C@H]2N2C(=O)N(c3ccc(F)cc3)C(=O)[C@]12C", "note": "[MLS001066503-01]", "values": [
      {"measurement": "AC50", "result": 2.51, "unit": "µM"},
      {"measurement": "Curve Class", "result": 4}
    ]},
    {"smiles": "CCOC(=O)[C@@H]1[C@H]2COc3ccc(Br)cc3[C@@H]2N2C(=O)N(c3ccc(C(F)(F)F)cc3)C(=O)[C@@]12C", "note": "[MLS001066025-01]", "values": [
      {"measurement": "Curve Class", "result": 4}
    ]},
    {"smiles": "CCOC(=O)[C@@H]1[C@H]2COc3ccc(Br)cc3[C@@H]2N2C(=O)N(c3ccc(C(F)(F)F)cc3)C(=O)[C@]12C", "note": "[MLS001066035-01]", "values": [
      {"measurement": "AC50", "result": 3.98, "unit": "µM"},
      {"measurement": "Curve Class", "result": 4}
    ]},
    {"smiles": "CCOC(=O)[C@@H]1[C@H]2COc3ccccc3[C@H]2N2C(=O)N(c3cccc(Cl)c3)C(=O)[C@@]12C", "note": "[MLS001066306-01]", "values": [
      {"measurement": "AC50", "result": 7.08, "unit": "µM"},
      {"measurement": "Curve Class", "result": 4}
    ]},
    {"smiles": "CCOC(=O)[C@@H]1[C@H]2COc3ccccc3[C@H]2N2C(=O)N(c3ccc(Cl)cc3)C(=O)[C@]12C", "note": "[MLS001066444-01]", "values": [
      {"measurement": "AC50", "result": 0.0071, "unit": "µM"},
      {"measurement": "Curve Class", "result": 4}
    ]},
    {"smiles": "CCOC(=O)[C@@H]1[C@H]2COc3cc(OC)ccc3[C@@H]2N2C(=O)N(c3cccc(F)c3)C(=O)[C@]12C", "note": "[MLS001066241-01]", "values": [
      {"measurement": "AC50", "result": 3.98, "unit": "µM"},
      {"measurement": "Curve Class", "result": 4}
    ]},
    {"smiles": "CCOC(=O)[C@@H]1[C@H]2COc3cc(OC)ccc3[C@H]2N2C(=O)N(c3cccc(Cl)c3)C(=O)[C@]12C", "note": "[MLS001066301-01]", "values": [
      {"measurement": "AC50", "result": 0.631, "unit": "µM"},
      {"measurement": "Curve Class", "result": 4}
    ]},
    {"smiles": "CCOC(=O)[C@@H]1[C@H]2COc3ccc(Br)cc3[C@@H]2N2C(=O)N(c3ccc(Br)cc3)C(=O)[C@]12C", "note": "[MLS001066244-01]", "values": [
      {"measurement": "AC50", "result": 0.0056, "unit": "µM"},
      {"measurement": "Curve Class", "result": 4}
    ]},
    {"smiles": "CCOC(=O)[C@@H]1[C@H]2COc3ccccc3[C@@H]2N2C(=O)N(c3ccc(OC)cc3)C(=O)[C@@]12C", "note": "[MLS001066514-01]", "values": [
      {"measurement": "AC50", "result": 14.1, "unit": "µM"},
      {"measurement": "Curve Class", "result": 4}
    ]},
    {"smiles": "CCOC(=O)[C@@H]1[C@H]2COc3ccccc3[C@H]2N2C(=O)N(c3ccc(C(F)(F)F)cc3)C(=O)[C@]12C", "note": "[MLS001066275-01]", "values": [
      {"measurement": "AC50", "result": 5.01, "unit": "µM"},
      {"measurement": "Curve Class", "result": 4}
    ]},
    {"smiles": "CCOC(=O)[C@@H]1[C@H]2COc3cc(OC)ccc3[C@H]2N2C(=O)N(c3cccc(Cl)c3)C(=O)[C@@]12C", "note": "[MLS001066311-01]", "values": [
      {"measurement": "AC50", "result": 10, "unit": "µM"},
      {"measurement": "Curve Class", "result": 4}
    ]},
    {"smiles": "C=C1NN=C(c2cc(-c3cccc(OCC)c3)nc3ccccc23)N1CC", "note": "[MLS000324596-02]", "values": [
      {"measurement": "IC50", "result": 2.11, "unit": "µM"},
      {"measurement": "80% Inhib. @", "setting": "RORγ/γt reporter, S2 cells, concentration for 80% inhibition", "result": 3.293, "unit": "µM"}
    ]},
    {"smiles": "CCOC(=O)[C@@H]1[C@H]2COc3cc(OC)ccc3[C@H]2N2C(=O)N(c3ccc(F)cc3)C(=O)[C@]12C", "note": "[MLS001066238-01]", "values": [
      {"measurement": "Curve Class", "result": 4}
    ]},
    {"smiles": "CCOC(=O)[C@@H]1[C@H]2COc3cc(OC)ccc3[C@@H]2N2C(=O)N(c3ccc(F)cc3)C(=O)[C@]12C", "note": "[MLS001066228-01]", "values": [
      {"measurement": "AC50", "result": 0.141, "unit": "µM"},
      {"measurement": "Curve Class", "result": 4}
    ]},
    {"smiles": "CCOC(=O)[C@@H]1[C@H]2COc3ccccc3[C@H]2N2C(=O)N(c3ccc(C)cc3)C(=O)[C@]12C", "note": "[MLS001066453-01]", "values": [
      {"measurement": "AC50", "result": 0.282, "unit": "µM"},
      {"measurement": "Curve Class", "result": 4}
    ]},
    {"smiles": "CCOC(=O)[C@@H]1[C@H]2COc3ccc(Br)cc3[C@H]2N2C(=O)N(c3ccc(F)cc3)C(=O)[C@]12C", "note": "[MLS001066253-01]", "values": [
      {"measurement": "Curve Class", "result": 4}
    ]},
    {"smiles": "CCOC(=O)[C@@H]1[C@H]2COc3cc(OC)ccc3[C@@H]2N2C(=O)N(c3cccc(C)c3)C(=O)[C@@]12C", "note": "[MLS001066270-01]", "values": [
      {"measurement": "AC50", "result": 12.6, "unit": "µM"},
      {"measurement": "Curve Class", "result": "−3"}
    ]},
    {"smiles": "CCOC(=O)[C@@H]1[C@H]2COc3ccc(Br)cc3[C@@H]2N2C(=O)N(c3ccccc3)C(=O)[C@]12C", "note": "[MLS001066242-01]", "values": [
      {"measurement": "AC50", "result": 0.0224, "unit": "µM"},
      {"measurement": "Curve Class", "result": 4}
    ]},
    {"smiles": "CCOC(=O)[C@@H]1[C@H]2COc3cc(OC)ccc3[C@@H]2N2C(=O)N(c3ccc(OC)cc3)C(=O)[C@]12C", "note": "[MLS001066279-01]", "values": [
      {"measurement": "Curve Class", "result": 4}
    ]},
    {"smiles": "CCOC(=O)[C@@H]1[C@H]2COc3ccc(Br)cc3[C@H]2N2C(=O)N(c3ccc(Br)cc3)C(=O)[C@]12C", "note": "[MLS001066254-01]", "values": [
      {"measurement": "AC50", "result": 1.12, "unit": "µM"},
      {"measurement": "Curve Class", "result": 4}
    ]},
    {"smiles": "CCOC(=O)[C@@H]1[C@H]2COc3ccccc3[C@@H]2N2C(=O)N(c3ccc(Cl)cc3)C(=O)[C@@]12C", "note": "[MLS001066523-01]", "values": [
      {"measurement": "AC50", "result": 15.8, "unit": "µM"},
      {"measurement": "Curve Class", "result": "−3"}
    ]}
  ]
}
